# Reference: US9862684B2, “Modulation of K2P channels” (The Regents of the University of California, priority 2013, dated 2018)
# Values joined by “and” are separate entries in the source; they are usually repeats but may differ in a detail not shown here. Equal values may be shown once.
# Key:
# Kv7.2 (KCNQ2) = molecular target: T1, Kv7.2 (KCNQ2) (Homo sapiens, UniProt O43526); test: Two-electrode voltage clamp, Xenopus oocytes expressing Kv7.2 (KCNQ2); type: cell-based; details: ML67-33 at 100 μM; ML67 concentration not stated
# T1 construct: expressed in transfected cells; host or cells: Xenopus oocytes
# Description: FIG. 12 Exemplar I-V curves showing the effect of 100 μM ML67-33 Kv7.2 (KCNQ2) measured by two-electrode voltage clamp in Xenopus oocytes in 2 mM [K^+]o pH 7.4. Currents were elicited by a step protocol from −120 to 60 mV, in 20 mV increments, from a holding potential of −80 mV.
# Two-electrode voltage clamp recordings were performed from defolliculated stage V-VI Xenopus oocytes 24-48 hours after injection with 0.015-6.0 ng cRNA, using microelectrodes (0.3-3.0 MΩ) filled with 3M KCl. Data was acquired using the GeneClamp 500B (MDS Analytical Technologies) amplifier controlled by the pClamp software (Molecular Devices), and digitized at 1 kHz using Digidata 1332A (MDS Analytical Technologies). Recording solutions (mM): 2K (96 NaCl, 2 KCl, 1.8 CaCl2, 2 MgCl2), 90K (90 KCl, 8 NaCl, 1.8 CaCl2, 2 MgCl2), were buffered 5 mM HEPES pH 7.4. For K2P recordings, currents we elicited by a 1 second long ramp from −150 to +50 mV from a holding potential of −80 mV (2K), or −100 to +50 mV from a holding potential of 0 mV (90K). For KCNQ2 recordings, currents were elicited by a step protocol from −120 to 60 mV, in 20 mV increments, from a holding potential of −80 mV. Patch-clamp recordings from HEK-293T cells were performed using microelectrodes (2-3 MΩ) filled with 1M KCl. Data was acquired using the Axopatch 200B amplifier controlled by pClamp software, and digitized at 1 kHz using Digidata 1332A. Recording solutions (mM): intracellular (145 KCl, 5 EGTA, 3 MgCl2,) extracellular (150 NaCl, 5 KCl, 3 MgCl2, 1 CaCl2) were buffered with 5 mM HEPES pH 7.2 and 7.4, respectively. Currents were elicited by a 1 second long ramp from −150 to +50 mV from a holding potential of −80 mV. Data were fitted with a modified Hill's equation: I=Imin+(Imax−Imin)/(1+10^((Log EC50−Log [C])*H)), where Imax and Imin are maximal and minimal current values, respectively, EC50 is a half-maximal effective concentration of the compound, and H is the Hill coefficient.
# K2P4.1 (TRAAK) = molecular target: T2, K2P4.1 (TRAAK) (Mus musculus, UniProt O88454); test: Two-electrode voltage clamp, Xenopus oocytes expressing K2P4.1 (TRAAK); type: cell-based, Murine
# T2 construct: expressed in transfected cells; host or cells: Xenopus oocytes
# T2 sequence (O88454 1-398): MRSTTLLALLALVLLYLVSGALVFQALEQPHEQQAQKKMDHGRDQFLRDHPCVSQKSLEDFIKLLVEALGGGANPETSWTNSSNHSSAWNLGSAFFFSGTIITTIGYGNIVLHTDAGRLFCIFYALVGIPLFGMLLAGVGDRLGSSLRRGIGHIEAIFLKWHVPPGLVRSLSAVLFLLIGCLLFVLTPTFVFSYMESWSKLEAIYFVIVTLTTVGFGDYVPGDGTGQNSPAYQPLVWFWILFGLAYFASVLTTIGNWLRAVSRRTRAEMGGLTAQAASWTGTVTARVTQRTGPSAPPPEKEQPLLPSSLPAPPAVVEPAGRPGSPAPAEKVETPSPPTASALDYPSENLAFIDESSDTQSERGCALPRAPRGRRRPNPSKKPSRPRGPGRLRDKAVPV
# Description: FIG. 7 ML67-33 is a selective activator of heat- and mechanosensitive K2P channels. a-f, Exemplar I-V curves showing the effect of ML67-33 on a, K2P10.1 (TREK-2), b, K2P4.1 (TRAAK), c, K2P3.1 (TASK-1), d, K2P9.1 (TASK-3), e, K2P5.1 (TASK-2), and f, K2P18.1 (TRESK) measured in Xenopus oocytes in 2 mM [K^+]o pH 7.4. Currents were elicited by a voltage ramp from −150 to 50 mV, from a holding potential of −80 mV. g, Quantification of the effect of ML67-33 on the indicated channels. Data (mean±s.e., n≧6, N≧2) was normalized to basal channel activity and fitted to the Hill equation. […] Error bars indicate s.e., n≧6, N≧2.
# Murine K2P channels were cloned into pGEMHE/pMO {Bagriantsev, 2011}, IRES-GFP (Invitrogen), or pYES2-MET25 (high copy 2μ, URA3) {Minor, 1999} for expression in oocytes, HEK-293T cells, and yeast, respectively, using standard molecular biology procedures, and verified by DNA sequencing.
# Two-electrode voltage clamp recordings were performed from defolliculated stage V-VI Xenopus oocytes 24-48 hours after injection with 0.015-6.0 ng cRNA, using microelectrodes (0.3-3.0 MΩ) filled with 3M KCl. Data was acquired using the GeneClamp 500B (MDS Analytical Technologies) amplifier controlled by the pClamp software (Molecular Devices), and digitized at 1 kHz using Digidata 1332A (MDS Analytical Technologies). […]
smiles,measurement,setting,value
"CC1(C)c2cc(Cl)ccc2N(CCc2nnn[nH]2)c2ccc(Cl)cc21 [ML67-33, 2,7-dichloro-9,9-dimethyl-10-[2-(1H-tetrazol-5-yl)ethyl]acridine]",effect on Kv7.2 (KCNQ2) (in words),Kv7.2 (KCNQ2),no effect
same,EC50,"K2P4.1 (TRAAK); Xenopus oocytes, 2 mM [K+]o pH 7.4",27.3 ± 1.2 µM
same,Emax (fold),"K2P4.1 (TRAAK); at 100 μM (FIG. 7 legend), ** in Table 1",14.7±1.1 fold and 14.7±1.12 fold
